Assay results published in patent publication US8017656B2, “Organic sulfur compounds and use thereof” (Sumitomo Chemical Company, Limited, priority 2005, dated 2011).
Like-named read-outs stand apart in the source and are kept apart here.

What was measured:
Format in all cases: in vivo
[1] = system: Blattella germanica; test: Test Example 3: filter paper/sucrose bait test against German cockroach imagoes; conditions: Blattella germanica, 144 h, read-out: rate of dead pests
Procedure: (§1) On the bottom of a polyethylene cup having a diameter of 5.5 cm, a filter paper having the same diameter was laid, and 0.7 ml of the above test solution was added dropwise on the filter paper, followed by putting 30 mg of sucrose on it uniformly as a bait. Two male Blattella germanica imagoes were set free in the polyethylene cup and covered it with a lid. After 6 days, the number of surviving and dead Blattella germanica was examined and the rate of dead pests was calculated.

[2] = system: Musca domestica; test: Test Example 2: filter paper/sucrose bait test against housefly imagoes; conditions: read-out: rate of dead pests
Procedure: as §1, with “Ten female Musca domestica” for “Two male Blattella germanica”, “24 hours,” for “6 days,”, “Musca domestica” for “Blattella germanica”

[3] = system: Culex pipiens pallens; test: Test Example 4: mosquito larvae test in treated water; conditions: 24 h, read-out: rate of dead pests
Procedure: 0.7 ml of above test solution was added to 100 ml of ion exchanged water (active ingredient concentration: 3.5 ppm). Twenty last-instar larvae of Culex pipiens pallens were set free in the solution. After one day, the number of surviving and dead Culex pipiens pallens was examined and the rate of dead pests was calculated.

[4] = 500 ppm test solution, 0.7 ml on filter paper with 30 mg sucrose, two male imagoes, after 6 days
[5] = 500 ppm test solution, 0.7 ml on filter paper with 30 mg sucrose, ten female imagoes, after 24 hours
[6] = active ingredient concentration 3.5 ppm in water, twenty last-instar larvae, after one day

Row | SMILES | pest or weed control at 500 ppm [1] [%] | pest or weed control at 500 ppm ([2]; 24 h) [%] | pest or weed control at 3.5 ppm [3] [%] | pest or weed control at 500 ppm [1, 4] [%] | pest or weed control at 500 ppm [2, 5] [%] | pest or weed control at 3.5 ppm [3, 6] [%]
1 | COC(=O)C(C)(CCC(F)(F)C(F)(F)C(F)(F)F)S(=O)(=O)CCC(F)(F)C(F)(F)F (stereo not drawn) [(52)] | 100 | ≥ 70 | ≥ 90 |  |  | 
2 | NC(=O)C(Cl)(CCC(F)(F)C(F)(F)C(F)(F)C(F)(F)F)S(=O)(=O)CCC(F)(F)F (stereo not drawn) [(87)] | 100 | ≥ 70 | ≥ 90 |  |  | 
3 | NC(=O)C(CCC(F)(F)C(F)(F)F)S(=O)(=O)CCC(F)(F)C(F)(F)F (stereo not drawn) [(60)] |  |  |  | 100 | ≥ 70 | ≥ 90
4 | COC(=O)C(CCC(F)(F)C(F)(F)F)S(=O)(=O)CCC(F)(F)F (stereo not drawn) [(23)] |  |  |  | 100 | ≥ 70 | ≥ 90
5 | CN(C)C(=O)C(F)(CCC(F)(F)C(F)(F)F)S(=O)(=O)CCC(F)(F)F (stereo not drawn) [(74)] |  |  |  | 100 | ≥ 70 | ≥ 90
6 | COC(=O)C(Br)(CCC(F)(F)C(F)(F)F)S(=O)(=O)CCC(F)(F)F (stereo not drawn) [(65)] |  |  |  | 100 | ≥ 70 | ≥ 90
7 | NC(=O)C(Cl)(CCCC(F)(F)F)S(=O)(=O)CCC(F)(F)F (stereo not drawn) [(80)] |  |  |  | 100 | ≥ 70 | ≥ 90
8 | CNC(=O)C(Cl)(CCC(F)(F)C(F)(F)F)S(=O)(=O)CCC(F)(F)F (stereo not drawn) [(75)] |  |  |  | 100 | ≥ 70 | ≥ 90
9 | CC(CCC(F)(F)C(F)(F)F)(SCCC(F)(F)F)C(N)=O (stereo not drawn) [(70)] |  |  |  | 100 | ≥ 70 | ≥ 90
10 | COC(=O)C(Cl)(CCC(F)(F)C(F)(F)F)S(=O)(=O)CCC(F)(F)F (stereo not drawn) [(58)] |  |  |  | 100 | ≥ 70 | ≥ 90
11 | CC(C#N)(CCC(F)(F)C(F)(F)F)SCCC(F)(F)F (stereo not drawn) [(50)] |  |  |  | 100 | ≥ 70 | ≥ 90
12 | CC(C)NC(=O)C(C)(CCC(F)(F)C(F)(F)F)S(=O)(=O)CCC(F)(F)F (stereo not drawn) [(41)] |  |  |  | 100 | ≥ 70 | ≥ 90
13 | CC(CCC(F)(F)C(F)(F)F)(C(N)=O)S(=O)(=O)CCC(F)(F)C(F)(F)F (stereo not drawn) [(61)] |  |  |  | 100 | ≥ 70 | ≥ 90
14 | COC(=O)C(Cl)(CCCC(F)(F)F)S(=O)(=O)CCC(F)(F)F (stereo not drawn) [(79)] |  |  |  | 100 | ≥ 70 | ≥ 90
15 | COC(=O)C(C)(CCC(F)(F)C(F)(F)F)S(=O)(=O)CCC(F)(F)C(F)(F)F (stereo not drawn) [(30)] |  |  |  | 100 | ≥ 70 | ≥ 90
16 | COC(=O)C(Cl)(CCC(F)(F)F)S(=O)(=O)CCC(F)(F)C(F)(F)F (stereo not drawn) [(93)] |  |  |  | 100 | ≥ 70 | ≥ 90
17 | COC(=O)C(C)(CCC(F)(F)C(F)(F)F)[S+]([O-])CCC(F)(F)F (stereo not drawn) [(71)] |  |  |  | 100 | ≥ 70 | ≥ 90
18 | N#CC(CCC(F)(F)C(F)(F)C(F)(F)F)S(=O)(=O)CCC(F)(F)F (stereo not drawn) [(5)] | 100 | ≥ 70 | ≥ 90 |  |  | 
19 | CCNC(=O)C(C)(CCC(F)(F)C(F)(F)F)S(=O)(=O)CCC(F)(F)F (stereo not drawn) [(37)] |  |  |  | 100 | ≥ 70 | ≥ 90

Row | SMILES | pest or weed control at 500 ppm [1] [%] | pest or weed control at 500 ppm ([2]; 24 h) [%] | pest or weed control at 3.5 ppm [3] [%] | pest or weed control at 500 ppm [1, 4] [%] | pest or weed control at 500 ppm [2, 5] [%] | pest or weed control at 3.5 ppm [3, 6] [%]
20 | COC(=O)C(C)(CCC(F)(F)C(F)(F)F)SCCC(F)(F)F (stereo not drawn) [(68)] |  |  |  | 100 | ≥ 70 | ≥ 90
21 | N#CC(CCC(F)(F)C(F)(F)F)S(=O)(=O)CCC(F)(F)C(F)(F)F (stereo not drawn) [(8)] |  |  |  | 100 | ≥ 70 | ≥ 90
22 | CNC(=O)C(F)(CCC(F)(F)C(F)(F)F)S(=O)(=O)CCC(F)(F)F (stereo not drawn) [(69)] |  |  |  | 100 | ≥ 70 | ≥ 90
23 | N#CC(CC(F)(F)C(F)(F)C(F)(F)F)S(=O)(=O)CCC(F)(F)F (stereo not drawn) [(4)] | 100 | ≥ 70 | ≥ 90 |  |  | 
24 | COC(=O)C(Cl)(CCC(F)(F)C(F)(F)F)S(=O)(=O)CCC(F)(F)C(F)(F)F (stereo not drawn) [(88)] |  |  |  | 100 | ≥ 70 | ≥ 90
25 | N#CC(CCC(F)(F)F)S(=O)(=O)CCC(F)(F)F (stereo not drawn) [(1)] |  |  |  | 100 | ≥ 70 | ≥ 90
26 | NC(=O)C(F)(CCC(F)(F)C(F)(F)F)S(=O)(=O)CCC(F)(F)C(F)(F)F (stereo not drawn) [(73)] |  |  |  | 100 | ≥ 70 | ≥ 90
27 | N#CC(F)(CCC(F)(F)C(F)(F)F)S(=O)(=O)CCC(F)(F)F (stereo not drawn) [(20)] |  |  |  | 100 | ≥ 70 | ≥ 90
28 | NC(=O)C(Cl)(CCC(F)(F)F)S(=O)(=O)CCC(F)(F)F (stereo not drawn) [(81)] |  |  |  | 100 | ≥ 70 | ≥ 90
29 | COC(=O)C(Cl)(CCC(F)(F)C(F)(F)C(F)(F)F)S(=O)(=O)CCC(F)(F)C(F)(F)F (stereo not drawn) [(96)] | 100 | ≥ 70 | ≥ 90 |  |  | 
30 | NC(=O)C(Cl)(CCC(F)(F)C(F)(F)F)S(=O)(=O)CCC(F)(F)C(F)(F)F (stereo not drawn) [(89)] |  |  |  | 100 | ≥ 70 | ≥ 90
31 | NC(=O)C(Cl)(CCC(F)(F)C(F)(F)C(F)(F)F)S(=O)(=O)CCC(F)(F)C(F)(F)F (stereo not drawn) [(97)] | 100 | ≥ 70 | ≥ 90 |  |  | 
32 | CCC(C#N)(CCC(F)(F)C(F)(F)F)S(=O)(=O)CCC(F)(F)F (stereo not drawn) [(15)] |  |  |  | 100 | ≥ 70 | ≥ 90
33 | CC(C#N)(CCC(F)(F)C(F)(F)F)S(=O)(=O)CCC(F)(F)C(F)(F)F (stereo not drawn) [(13)] |  |  |  | 100 | ≥ 70 | ≥ 90
34 | CC(C#N)(CCCC(F)(F)F)S(=O)(=O)CCC(F)(F)F (stereo not drawn) [(45)] |  |  |  | 100 | ≥ 70 | ≥ 90
35 | NC(=O)C(Cl)(CCC(F)(F)C(F)(F)C(F)(F)F)S(=O)(=O)CCC(F)(F)F (stereo not drawn) [(84)] | 100 | ≥ 70 | ≥ 90 |  |  | 
36 | COC(=O)C(C)(CCC(F)(F)C(F)(F)F)S(=O)(=O)CCC(F)(F)F (stereo not drawn) [(26)] |  |  |  | 100 | ≥ 70 | ≥ 90
37 | N#CC(CCCC(F)(F)F)S(=O)(=O)CCC(F)(F)F (stereo not drawn) [(39)] |  |  |  | 100 | ≥ 70 | ≥ 90
38 | CC(CCC(F)(F)C(F)(F)F)(C(N)=S)S(=O)(=O)CCC(F)(F)F (stereo not drawn) [(49)] |  |  |  | 100 | ≥ 70 | ≥ 90
